One compound from US20100113530A1, “S1P LYASE INHIBITORS FOR THE TREATMENT OF CEREBRAL MALARIA” (priority 2008, published 2010) can be followed below.

The subject of experiment [1] is CD8+ T cells. In words: Cerebral malaria model: flow cytometry of tail vein blood for B and T cell levels. It counts as in vivo, C56B1/6 mice. To be noted: first dose one day before infection, blood taken 24 h after first dose, FIG. 1. On the procedure: (§1) FIGS. 1 and 2 show results of an experiment using three groups of 10 female C56B1/6 mice. The mice in all three groups were infected with 1 million parasites (P. berghei ANKA) i.p. in 500 μl of media. The first group was the control group. The S1P lyase inhibitor (E)-1-(4-((1R,2S,3R)-1,2,3,4-tetrahydroxybutyl)-1H-imidazol-2-yl)-ethanone oxime was administered i.p. (100 mg/kg) to the mice in the second group, and was administered by gavage (100 mg/kg) to the mice in the third group. The drug was administered daily, and was first administered one day before infection.
(§2) Twenty four hours after the drug was first administered, tail vein blood was taken from the mice, and flow cytometry analysis was used to assess the levels of B and T cells, using antibodies to CD3, CD4, CD8 and CD19. The animals were monitored daily for body weight, hematocrit, and parasitaemia, and twice daily for survival.

The test system of experiment [2] is P. berghei ANKA. In words: Cerebral malaria model: survival of infected mice. The class given is in vivo, C56B1/6 mice. The note with it: first dose one day before infection, FIG. 2. The procedure: as §1, §2

As for `C/C(=N\O)c1nc([C@@H](O)[C@H](O)[C@H](O)CO)c[nH]1` [(E)-1-(4-((1R,2S,3R)-1,2,3,4-tetrahydroxybutyl)-1H-imidazol-2-yl)-ethanone oxime], the “CD8+ T cells as compared to untreated control group” value in experiment [1] (gavage 100 mg/kg daily) and in experiment [1] (i.p. 100 mg/kg daily) was “decreased CD8+ T cells” each time. In addition, the “survival as compared to control group” value in experiment [2] (gavage 100 mg/kg daily) and in experiment [2] (i.p. 100 mg/kg daily) was “lived significantly longer” each time.
